Results taken from patent publication US11186603B2, “Heparan sulfate glycomimetic compounds and their pharmaceutical and cosmeceutical uses” (VICTORIA LINK LIMITED, priority 2017, dated 2021).

Tests used:
[1] = test system: GM03123 (NPC) fibroblast cell line; test: NPC cholesterol activity: filipin staining, LSO ratio; type: cell-based, human; details: for LSO %: GM03123 (NPC), 48 hours
From the text: (§1) Fibroblast cell lines derived from Alzheimer and Niemann-Pick Type C (NPC) patients and healthy controls were obtained from the […] (Camden, N.J., USA). Cell line GM03123 was derived from a NPC patient with two heterozygous mutations in the NPC1 gene. Cell line GM09503 was used as a healthy control for the NPC cell line. Cell line ND41001 was derived from a patient carrying a Presenilin 1 mutation with familial (early onset) Alzheimer's disease (AD). Cell line ND38530 was used as a healthy control for the AD cell line. Further details of the cell lines are available at the Cornell Cell Repository website (https://catalog.coriell.org/).
(§2) Cell culture work was carried out in sterile conditions in an Email Air Handling Class II Biological Safety Cabinet (AES Environmental Pty LTD, Australia). All cell lines were cultured in DMEM (10313-021, Life Technologies New Zealand) supplemented with 10% fetal calf serum (Thermo Fisher Scientific New Zealand), 1× GlutaMAX™ Supplement (stabilised L-glutamine, Gibco Life Technologies New Zealand), 100 units/mL penicillin and 100 units/mL streptomycin (Life Technologies New Zealand). Cell lines were maintained in or 75 cm^2 flasks (Corning, Invitro Technologies New Zealand) in a humidified incubator (Sanyo Electric Co. Ltd, Japan) at 37° C. and 5% CO2. Experimental cultures were carried out in the same media omitting the antibiotics to avoid any potential interaction with the compound being tested.
(§3) For experiments, cells were seeded at a density of 1.25×10^3 cells/mL in black, 96 well plates (Cell-carrier, Perkin Elmer, Scimed New Zealand) in a volume of 100 μL media and grown for 24 hours before treating. The media was then replaced with fresh media supplemented with the required treatment. Cell lines GM03123 and ND41001 were either left untreated, or treated with either 10 μM or 100 μM of the heparan sulphate compound dissolved in sterile deionised water (dH20), 10 μM suberoylanilide hydroxamic acid (SAHA) dissolved in DMSO, or 0.1% DMSO. The healthy control cell lines GM09503 and ND38530 were left untreated or treated with U18666A dissolved in sterile dH20 at a final concentration of 1 μg/mL. U18666A causes cholesterol accumulation in the cell and is therefore a positive control for the filipin stain. Cells were then grown for 48 hours.
(§4) Before fixing, cells were washed three times with 1× phosphate buffered saline (PBS). From this point all treatments and washes were undertaken on a rotating table at 45 revs per minute. Cells were fixed with 1.5% paraformaldehyde (PFA) in 1×PBS (Thermo Fisher Scientific New Zealand) for 20 minutes. Cells were then washed with 1×PBS for four minutes. This was repeated twice. The cells were then stained for 2 hours with 50 μg/mL Filipin dye (Filipin complex from Streptomyces filipinensis, Sigma Aldrich, Australia) protected from the light. With minimal light exposure, the cells were washed with 1×PBS for four minutes and this was repeated twice. Cells were left in 1×PBS for confocal microscopy. The filipin stained cells were imaged using a Perkin Elmer Opera™ high-throughput spinning disk confocal microscope using 405 nm laser and 20× water immersion objective. Perkin Elmer Acapella™ software was used for image analysis. In NPC cells cholesterol accumulates in organelles with the characteristics of late endosomes or early lysosomes. These can be described as lysosome-like storage organelles (LSO). Analysis of free cholesterol levels in the cells was carried out using a method designed for high throughput confocal images described by Pipalia et al., Automated microscopy screening for compounds that partially revert cholesterol accumulation in Niemann-Pick C cells, J. Lipid Res., 2006, 47(2): 284-301. A low fluorescence threshold was chosen which identified the total area occupied by cells and another higher threshold was chosen to determine the areas of bright filipin staining of cholesterol within the cell. […]

[2] = test system: ND41001 (AD) fibroblast cell line; test: as above; type: cell-based, human; details: 48 hours
From the text: as §1, §2, §3, §4

[3] = 10 μM, LSO ratio treated/untreated x 100

Row | Structure (SMILES) | LSO % [1, 3] [%] | LSO % ([1]; 100 μM) [%] | effect on filipin (cholesterol) fluorescence (in words) ([1]; fibroblast cells derived from Niemann-Pick type C and Alzheimer's disease patients) | LSO % ([2]; 10 μM) [%] | LSO % ([2]; 100 μM) [%]
1 | O=C(CCCCCCCNC(=O)CCOCC(COCCC(=O)NCCCCCCCC(=O)NCCOCCOCCOCCC(=O)NCCCCCCOC1OC(COS(=O)(=O)[O-])C(OC2OC(COS(=O)(=O)[O-])C(OS(=O)(=O)[O-])C(OS(=O)(=O)[O-])C2OS(=O)(=O)[O-])C(OS(=O)(=O)[O-])C1OS(=O)(=O)[O-])(COCCC(=O)NCCCCCCCC(=O)NCCOCCOCCOCCC(=O)NCCCCCCOC1OC(COS(=O)(=O)[O-])C(OC2OC(COS(=O)(=O)[O-])C(OS(=O)(=O)[O-])C(OS(=O)(=O)[O-])C2OS(=O)(=O)[O-])C(OS(=O)(=O)[O-])C1OS(=O)(=O)[O-])COCCC(=O)NCCCCCCCC(=O)NCCOCCOCCOCCC(=O)NCCCCCCOC1OC(COS(=O)(=O)[O-])C(OC2OC(COS(=O)(=O)[O-])C(OS(=O)(=O)[O-])C(OS(=O)(=O)[O-])C2OS(=O)(=O)[O-])C(OS(=O)(=O)[O-])C1OS(=O)(=O)[O-])NCCOCCOCCOCCC(=O)NCCCCCCOC1OC(COS(=O)(=O)[O-])C(OC2OC(COS(=O)(=O)[O-])C(OS(=O)(=O)[O-])C(OS(=O)(=O)[O-])C2OS(=O)(=O)[O-])C(OS(=O)(=O)[O-])C1OS(=O)(=O)[O-].[Na+].[Na+].[Na+].[Na+].[Na+].[Na+].[Na+].[Na+].[Na+].[Na+].[Na+].[Na+].[Na+].[Na+].[Na+].[Na+].[Na+].[Na+].[Na+].[Na+].[Na+].[Na+].[Na+].[Na+].[Na+].[Na+].[Na+].[Na+] (stereo not shown) [Compound 25a] | 76.1 | 64.2 | positive effect on filipin (cholesterol) fluorescence | 60.1 | 67.9
2 | O=C(CCCCCCC(=O)Nc1ccccc1)NO [SAHA, suberoylanilide hydroxamic acid, reference compound] | 43.0 |  |  | 42.4 | 
